Results: patent publication US4110327A, “2,3 Diketo-piperazinocarbonylamino alkanoic acids and derivatives” (Toyama Chemical Co., Ltd., priority 1974, dated 1978)
In brackets after ≈: the same amount, converted by molar mass.

Tests used:
Experiment in all cases: MIC against standard strain, plate method
Type in all cases: cell-based
[1] = test system: Klebsiella pneumoniae; settings: unit assumed
Protocol: (§1) The minimum inhibitory concentrations (MIC) was determined by the plate method disclosed in "Chemotherapy" (Japan), Vol. 16, (1968), pages 98 - 99. The culture medium used was a Heart infusion agar (pH 7.4). The number of the cells per plate used in the inoculum as 10^4 (10^6 cells/ml).

[2] = test system: Pseudomonas aeruginosa I.F.O.; settings: unit assumed
Protocol: as §1

[3] = test system: Proteus vulgaris 3027; settings: Proteus vulgaris 3027, standard strain; unit assumed
Protocol: as §1

[4] = test system: Escherichia coli NIHJ; settings: unit assumed
Protocol: as §1

[5] = test system: Staphylococcus aureus 209p; settings: unit assumed
Protocol: as §1

Compound | MIC [1] | MIC [2] | MIC [3] | MIC [4] | MIC [5]
CC1(C)S[C@@H]2[C@H](NC(=O)[C@H](NC(=O)N3CCN(CCCl)C(=O)C3=O)c3ccccc3)C(=O)N2[C@H]1C(=O)O [compound 44] | < 1.57 µg/mL | 6.25 µg/mL (≈ 11.3 µM) | < 1.57 µg/mL | < 1.57 µg/mL | < 1.57 µg/mL
CCCCN1C(=O)CN(C(=O)N[C@@H](C(=O)N[C@@H]2C(=O)N3[C@@H]2SC(C)(C)[C@@H]3C(=O)O)c2ccccc2)CC1C (stereo partly shown) [compound 22] | 12.5 µg/mL (≈ 22.9 µM) | 50 µg/mL (≈ 91.6 µM) | 6.25 µg/mL (≈ 11.5 µM) | < 1.57 µg/mL | < 1.57 µg/mL
COCOC(=O)[C@@H]1N2C(=O)[C@@H](NC(=O)[C@H](NC(=O)N3CCN(C)C(=O)C3=O)c3ccccc3)[C@H]2SC1(C)C (single isomer, unassigned) [compound 50] | 6.25 µg/mL (≈ 11.4 µM) | 6.25 µg/mL (≈ 11.4 µM) | < 0.79 µg/mL | < 0.79 µg/mL | < 0.79 µg/mL
CC(=O)N1CCN(C(=O)N[C@@H](C(=O)N[C@@H]2C(=O)N3[C@@H]2SC(C)(C)[C@@H]3C(=O)O)c2ccccc2)C(=O)C1C (stereo partly shown) [compound 4] | 12.5 µg/mL (≈ 23.5 µM) | 25 µg/mL (≈ 47 µM) | 3.13 µg/mL (≈ 5.89 µM) | < 1.57 µg/mL | < 1.57 µg/mL
CCCCCCCCN1CCN(C(=O)NC(C(=O)NC2C(=O)N3C2SC(C)(C)C3C(=O)OCCN2CCOCC2)c2ccccc2)C(=O)C1=O (stereo not shown) [compound 56] | 1.57 µg/mL (≈ 2.2 µM) | 12.5 µg/mL (≈ 17.5 µM) | 0.79 µg/mL (≈ 1.11 µM) | < 0.4 µg/mL | < 0.4 µg/mL
Cc1ccc(C(=O)N2CCN(C(=O)N[C@@H](C(=O)N[C@@H]3C(=O)N4[C@@H]3SC(C)(C)[C@@H]4C(=O)O)c3ccccc3)C(=O)C2)cc1 [compound 9] | 3.13 µg/mL (≈ 5.27 µM) | 100 µg/mL (≈ 168 µM) | 3.13 µg/mL (≈ 5.27 µM) | 3.13 µg/mL (≈ 5.27 µM) | < 1.57 µg/mL
CC1(C)S[C@@H]2[C@H](NC(=O)[C@H](NC(=O)N3CCN(CCO)C(=O)C3)c3ccccc3)C(=O)N2[C@H]1C(=O)O [compound 24] | 50 µg/mL (≈ 96.2 µM) | 50 µg/mL (≈ 96.2 µM) | 25 µg/mL (≈ 48.1 µM) | < 1.57 µg/mL | 3.13 µg/mL (≈ 6.02 µM)
CC1(C)S[C@@H]2[C@H](NC(=O)[C@H](NC(=O)N3CCN(C(=O)c4ccc(Cl)cc4Cl)CC3=O)c3ccccc3)C(=O)N2[C@H]1C(=O)O [compound 10] | 6.25 µg/mL (≈ 9.64 µM) | 100 µg/mL (≈ 154 µM) | 3.13 µg/mL (≈ 4.83 µM) | < 1.57 µg/mL | < 1.57 µg/mL
CCCCCCN1CCN(C(=O)N[C@@H](C(=O)N[C@@H]2C(=O)N3[C@@H]2SC(C)(C)[C@@H]3C(=O)O)c2ccccc2)CC1=O [compound 29] | 3.13 µg/mL (≈ 5.59 µM) | 12.5 µg/mL (≈ 22.3 µM) | 3.13 µg/mL (≈ 5.59 µM) | < 1.57 µg/mL | 3.13 µg/mL (≈ 5.59 µM)
CCCCN1CCN(C(=O)N[C@@H](C(=O)N[C@@H]2C(=O)N3[C@@H]2SC(C)(C)[C@@H]3C(=O)O)c2ccccc2)CC1=O [compound 18] | 25 µg/mL (≈ 47 µM) | 12.5 µg/mL (≈ 23.5 µM) | 3.13 µg/mL (≈ 5.89 µM) | < 1.57 µg/mL | < 1.57 µg/mL
CN1CCN(C(=O)N[C@@H](C(=O)N[C@@H]2C(=O)N3[C@@H]2SC(C)(C)[C@@H]3C(=O)O)c2ccc(O)cc2)C(=O)C1=O (single isomer, unassigned) [compound 48] | 25 µg/mL (≈ 48.1 µM) | 6.25 µg/mL (≈ 12 µM) | < 0.4 µg/mL | < 0.4 µg/mL | < 0.4 µg/mL
CN1CCN(C(=O)NC(C(=O)NC2C(=O)N3C(C(=O)O)=C(CSc4nncn4C)CSC23)c2ccccc2)C(=O)C1=O (single isomer, unassigned) [compound 65] | 3.13 µg/mL (≈ 5.09 µM) | 25 µg/mL (≈ 40.7 µM) | 3.13 µg/mL (≈ 5.09 µM) | 0.79 µg/mL (≈ 1.29 µM) | 3.13 µg/mL (≈ 5.09 µM)
CCCCCCCCCCCCN1CCN(C(=O)N[C@@H](C(=O)N[C@@H]2C(=O)N3[C@@H]2SC(C)(C)[C@@H]3C(=O)O)c2ccccc2)CC1=O [compound 31] | 6.25 µg/mL (≈ 9.71 µM) | 12.5 µg/mL (≈ 19.4 µM) | < 1.57 µg/mL | < 1.57 µg/mL | < 1.57 µg/mL
CCN1CCN(C(=O)NC(C(=O)NC2C(=O)N3C(C(=O)O)=C(CSc4cccc[n+]4[O-])CSC23)c2ccccc2)C(=O)C1=O (single isomer, unassigned) [compound 70] | 1.56 µg/mL (≈ 2.43 µM) | 100 µg/mL (≈ 156 µM) | < 0.79 µg/mL | 1.57 µg/mL (≈ 2.45 µM) | < 0.79 µg/mL
